Earlier results as cited in Sander's compilation of Henry's law constants (doi:10.1063/1.1564818).

Assay: Henry solubility constant Hcp at 298.15 K (mol/(m3 Pa))
Conditions: reference: Fernández-Prini et al. (2003); cited value

| SMILES | Henry solubility constant Hcp |
| --- | --- |
| [Ar] [argon] | 1.4e-05 |
| O=C=O [carbon dioxide] | 0.00033 |
| [C-]#[O+] [carbon monoxide] | 9.7e-06 |
| [He] [helium] | 3.9e-06 |
| [HH] [hydrogen] | 7.8e-06 |
| [Kr] [krypton] | 2.5e-05 |
| [Ne] [neon] | 4.5e-06 |
| O=O [oxygen] | 1.3e-05 |
| FS(F)(F)(F)(F)F [sulfur hexafluoride] | 2.5e-06 |
| [Xe] [xenon] | 4.4e-05 |
